Where two headings read alike, the source gives them in different places. Ends that are not written are not given here.
Assay: Clinical test in humans, three 30-min i.v. infusions 8 hours apart, plasma PK
Assay type: in vivo
Conditions: human, three 30-min i.v. infusions 8 h apart; for AUC / Cmax / Tmax / AUC(0-t) / half-life: iv; for AUC(0-t): read-out: AUC0-24; for half-life: after the last infusion
Method: A total of 8 subjects were included in each group. In each group, 6 subjects received the active treatment and 2 received the placebo. The active treatment was as follows in each group: • Group 9 received three 8 hours apart 30-min Peptide 1 intravenous (i.v.) infusions, wherein each i.v. infusion corresponded to a dose of 50 μg/kg. • Group 10 received three 8 hours apart 30-min Peptide 1 intravenous (i.v.) infusions, wherein each i.v. infusion corresponded to a dose of 100 μg/kg. • Group 11 received three 8 hours apart 30-min Peptide 1 intravenous (i.v.) infusions, wherein each i.v. infusion corresponded to a dose of 140 μg/kg. • Group 12 received three 8 hours apart 30-min Peptide 1 intravenous (i.v.) infusions, wherein each i.v. infusion corresponded to a dose of 200 μg/kg. • Group 13 received three 8 hours apart 30-min Peptide 1 intravenous (i.v.) infusions, wherein each i.v. infusion corresponded to a dose of 250 μg/kg.
The tested liquid pharmaceutical composition has a pH of 8.2-8.4, and comprises the following: • i) 5 mg/ml of Peptide 1, • ii) 4% (w/w) mannitol, • iii) 1% (w/w) sucrose, • iv) 0.01% (w/w) Polysorbate-80, • v) 10 mM glycyl-glycine, and • vi) sterile water for injection.
Venous whole blood samples were collected from all subjects.
Plasma samples were analyzed for Peptide 1 using validated Liquid chromatography—Tandem Mass spectrometry (LC-MS/MS) methods by Charles River Laboratories (CRL).
Derivation of PK parameters were carried out by PhinC Development using Phoenix WinNonlin® (Version Phoenix 8.1—Certara—Princeton—USA). A non-compartmental analysis (NCA) approach was chosen.
For the calculation of the PK parameters and characteristics the following rules were applied: • All the plasma concentrations validated by the bioanalytical laboratory and provided to the pharmacokinetics were used for the PK analysis. • The theoretical PK blood sampling time points were used. • At time points in the lag-time between time zero and the first concentration equal or above limit of quantification (LOQ), concentrations below the LOQ (BLQ) were set to zero (0). • Concentrations BLQ between 2 concentrations equal or above LOQ were considered as missing. • Trailing concentrations (at time point between time of last measurable concentrations and time of last blood sample) BLQ were not used in calculations. • For 3 infusions regimen, each infusion was considered separately and BLQ rules were applied for each infusion. […] If the pre-dose value was greater than 5% of Cmax, the subject was dropped from all statistical evaluations.
AUC0-tau was only calculated if there were at least 3 concentrations above LOQ. • AUC0-24: The area under the plasma concentration-time curve from time zero (pre-dose) to 24 h was calculated as the sum of the 3 AUC0-tau: AUC0-24=AUC0-tau1+AUC0-tau2+AUC0-tau3. • AUC0-t: The area under the concentration-time curve from time zero (pre-dose) to the time of last quantifiable concentration was calculated using a linear trapezoidal method after each administration (AUC0-t1, AUC0-t2 and AUC0-t3, where AUC0-t1 was AUC0-t corresponded to the AUC from pre-dose to the last measurable quantifiable concentration following the first infusion). AUC0-t was only calculated if there were at least 3 concentrations above LOQ. • ke: The terminal plasma elimination rate-constant was estimated from log-linear regression analysis of the terminal phase of the plasma concentration-time profile. The number of points included in the terminal phase was determined by visual inspection of the semi-log plots of the plasma concentration-time profiles. A minimum of 3 data points, including the last measured data point and excluding Cmax, had to be available for the regression. The correlation coefficient for the goodness of the fit of the regression line through the data points (r^2) had to be 0.8000 or higher, for the value to be considered reliable. […]

AUC (in vivo, 250 ug/kg, 250 μg/kg each, mean, read-out: AUC0-t3): 2430 ng·h/mL | AUC (in vivo, 250 ug/kg, 250 μg/kg each, mean, read-out: AUC0-tau1): 2630 ng·h/mL | AUC (in vivo, 250 ug/kg, 250 μg/kg each, mean, read-out: AUC0-tau2): 2440 ng·h/mL | AUC (in vivo, 250 ug/kg, 250 μg/kg each, mean, read-out: AUC0-tau3): 2480 ng·h/mL | Cmax (in vivo, 250 ug/kg, 250 μg/kg each, mean, read-out: Global Cmax): 2330 ng/mL | Tmax (in vivo, 250 ug/kg, 250 μg/kg each, median, read-out: Global tmax): 8.5 h | Tmax (in vivo, 250 ug/kg, 250 μg/kg each, median, read-out: tmax3): 16.5 h | AUC (in vivo, 50 μg/kg each, GM, read-out: AUC0-t1): 417 ng·h/mL | AUC (in vivo, 50 μg/kg each, GM, read-out: AUC0-tau1): 509 ng·h/mL | AUC (in vivo, 50 μg/kg each, mean, read-out: AUC0-tau2): 517 ng·h/mL | AUC (in vivo, 50 μg/kg each, mean, read-out: AUC0-tau3): 541 ng·h/mL | AUC(0-t) (in vivo, 100 μg/kg each, GM): 3600 ng·h/mL | AUC (in vivo, 100 μg/kg each, GM, read-out: AUC0-t1): 982 ng·h/mL | AUC (in vivo, 100 μg/kg each, GM, read-out: AUC0-t2): 1120 ng·h/mL | AUC (in vivo, 100 μg/kg each, GM, read-out: AUC0-t3): 1090 ng·h/mL | AUC (in vivo, 100 μg/kg each, mean, read-out: AUC0-t1): 993 ng·h/mL | AUC (in vivo, 100 μg/kg each, mean, read-out: AUC0-tau1): 1120 ng·h/mL | AUC (in vivo, 100 μg/kg each, mean, read-out: AUC0-tau2): 1240 ng·h/mL | AUC (in vivo, 100 μg/kg each, mean, read-out: AUC0-tau3): 1260 ng·h/mL | Cmax (in vivo, 100 μg/kg each, mean, read-out: Global Cmax): 1020 ng/mL | half-life (in vivo, 140 μg/kg each, GM): 1.93 h | AUC(0-t) (in vivo, 140 μg/kg each, GM): 5310 ng·h/mL | AUC (in vivo, 140 μg/kg each, GM, read-out: AUC0-t3): 1570 ng·h/mL | AUC (in vivo, 140 μg/kg each, mean, read-out: AUC0-tau3): 1710 ng·h/mL | half-life (in vivo, 200 μg/kg each, GM): ~2 h | AUC (in vivo, 200 μg/kg each, GM, read-out: AUC0-t1): 2490 ng·h/mL | AUC (in vivo, 200 μg/kg each, GM, read-out: AUC0-tau1): 2590 ng·h/mL | AUC (in vivo, 200 μg/kg each, GM, read-out: AUC0-tau2): 2750 ng·h/mL | AUC (in vivo, 200 μg/kg each, GM, read-out: AUC0-tau3): 2710 ng·h/mL | Cmax (in vivo, 200 μg/kg each, mean, read-out: Global Cmax): 2370 ng/mL | half-life (in vivo, 250 μg/kg each, GM): ~2 h | AUC (in vivo, 250 μg/kg each, GM, read-out: AUC0-t1): 2500 ng·h/mL | AUC (in vivo, 250 μg/kg each, GM, read-out: AUC0-t2): 2300 ng·h/mL | AUC (in vivo, 250 μg/kg each, GM, read-out: AUC0-tau3): 2460 ng·h/mL | Tmax (in vivo, all subjects except one (time of the end of infusion), read-out: tmax after each administration): 0.5 h | Cmax (plasma, 50 μg/kg, 50 μg/kg each, GM, read-out: Cmax1): 403 ng/mL | Cmax (plasma, 50 μg/kg, 50 μg/kg each, mean, read-out: Cmax2): 395 ng/mL | Cmax (plasma, 100 μg/kg, 100 μg/kg each, GM, read-out: Cmax1): 877 ng/mL | Cmax (plasma, 100 μg/kg, 100 μg/kg each, GM, read-out: Cmax3): 958 ng/mL | Cmax (plasma, 100 μg/kg, 100 μg/kg each, mean, read-out: Cmax1): 883 ng/mL | Cmax (plasma, 100 ug/kg, 100 μg/kg each, mean, read-out: Cmax2): 977 ng/mL | Cmax (plasma, 140 μg/kg, 140 μg/kg each, GM, read-out: Cmax1): 1310 ng/mL | Cmax (plasma, 140 μg/kg, 140 μg/kg each, GM, read-out: Cmax3): 1220 ng/mL | Cmax (plasma, 140 μg/kg, 140 μg/kg each, mean, read-out: Cmax1): 1340 ng/mL | Cmax (plasma, 200 μg/kg, 200 μg/kg each, GM, read-out: Cmax3): 2130 ng/mL | Cmax (plasma, 200 μg/kg, 200 μg/kg each, mean, read-out: Cmax1): 2190 ng/mL | Cmax (plasma, 200 μg/kg, 200 μg/kg each, mean, read-out: Cmax2): 2050 ng/mL | Cmax (plasma, 250 μg/kg, 250 μg/kg each, GM, read-out: Cmax1): 1890 ng/mL | Cmax (plasma, 250 μg/kg, 250 μg/kg each, GM, read-out: Cmax2): 1800 ng/mL | Cmax (plasma, 250 μg/kg, 250 μg/kg each, GM, read-out: Cmax3): 1780 ng/mL | Cmax (plasma, 250 μg/kg, 250 μg/kg each, mean, read-out: Cmax1): 1960 ng/mL | Cmax2 (50 μg/kg each, GM): 391 ng/mL | Cmax3 (50 μg/kg each, GM): 396 ng/mL | tmax1 (50 μg/kg each, GM): 0.50 h | tmax2 (50 μg/kg each, GM): 8.50 h | Cmax1 (50 μg/kg each, mean): 406 ng/mL | tmax1 (50 μg/kg each, median): 0.50 h | tmax2 (50 μg/kg each, median): 8.50 h | tmax3 (50 μg/kg each, median): 16.50 h | Cmax2 (100 μg/kg each, GM): 971 ng/mL | tmax1 (100 μg/kg each, GM): 0.50 h | tmax2 (100 μg/kg each, GM): 8.50 h | tmax3 (100 μg/kg each, GM): 16.50 h | Cmax3 (100 μg/kg each, mean): 970 ng/mL | tmax1 (100 μg/kg each, median): 0.50 h | tmax2 (100 μg/kg each, median): 8.50 h | Cmax2 (140 μg/kg each, GM): 1360 ng/mL | tmax1 (140 μg/kg each, GM): 0.50 h | tmax2 (140 μg/kg each, GM): 8.47 h | tmax3 (140 μg/kg each, GM): 16.50 h | Cmax2 (140 μg/kg each, mean): 1390 ng/mL | Cmax3 (140 μg/kg each, mean): 1240 ng/mL | tmax1 (140 μg/kg each, median): 0.50 h | tmax2 (140 μg/kg each, median): 8.50 h | AUC0-tau3 (200 μg/kg each, GM): 2774.47 ng·h/mL | Cmax1 (200 μg/kg each, GM): 2170 ng/mL | Cmax2 (200 μg/kg each, GM): 2020 ng/mL | tmax1 (200 μg/kg each, GM): 0.50 h | tmax2 (200 μg/kg each, GM): 8.50 h | tmax3 (200 μg/kg each, GM): 16.47 h | Cmax3 (200 μg/kg each, mean): 2170 ng/mL | tmax1 (200 μg/kg each, median): 0.50 h | tmax2 (200 μg/kg each, median): 8.50 h | tmax2 (250 μg/kg each, GM): 8.54 h | tmax3 (250 μg/kg each, GM): 16.44 h | Cmax2 (250 μg/kg each, mean): 1930 ng/mL | Cmax3 (250 μg/kg each, mean): 1800 ng/mL | tmax1 (250 μg/kg each, median): 0.50 h | tmax2 (250 μg/kg each, median): 8.50 h
Substance: AMVSEFLKQAWFIENEEQEYVQTLKSSKGGPGSAVSPYPTFNPSSDV-NH2 [Peptide 1]
